Reference: patent US6140354A, “N-substituted aminotetralins as ligands for the neuropeptide Y Y5 receptor useful in the treatment of obesity and other disorders” (Ortho-McNeil Pharmaceutical, Inc., priority 1999, dated 2000)

Experiments:
[1] = Rodent Feeding Model: Measurement of Food Intake in Food-Deprived Rats; assay type: in vivo, Male Long-Evans rats; conditions: 30 mg/kg i.p., N = 8; for Food Consumption (% chg.) 0-2 hrs / Food Consumption (% chg.) 0-6 hrs / Food Consumption (% chg.) 2-6 hrs: vs vehicle, negative = reduction
Description: Male Long-Evans rats (180-200 grams) are housed individually and are maintained on a once-a-day feeding schedule (i.e. 10 a.m. until 4 p.m.) for five days following quarantine to allow the animals to acclimate to feeding on powdered chow (#5002 PMI Certified Rodent Meal) during the allotted time. The chow is made available in an open jar, anchored in the cage by a wire, with a metal follower covering the food to minimize spillage. Water is available ad-libitum.
Animals are fasted for 18 hours prior to testing. At the end of the fasting period, animals are administered either compounds of the invention or vehicle. Vehicle and test compounds are administered either orally (5 mL/kg) 60 minutes prior to the experiment, or 30 minutes prior when given subcutaneously (1 mL/kg) or intraperitoneally (1 mL/kg). Compounds of the invention are administered orally as a suspension in aqueous 0.5% methylcellulose-0.4% Tween 80, or intraperitoneally as a solution or suspension in PEG 200; compound concentrations typically range from 1 mg/kg to 100 mg/kg, preferably from 10-30 mg/kg. Food intake is measured at 2, 4, and 6 hours after administration by weighing the special jar containing the food before the experiment and at the specified times. Upon completion of the experiment, all animals are given a one-week washout period before retesting.
Percent reduction of food consumption is calculated subtracting the grams of food consumed by the treated group from the grams of food consumed by the control group divided by the grams of food consumed by the control group, multiplied by 100. [formula] A negative value indicates a reduction in food consumption and a positive value indicates an increase in food consumption.

[2] = target: T1, human neuropeptide Y5 receptor (Homo sapiens, UniProt Q15761); assay: NPY5 HTS Centrifugation Assay: competition with 125I-PYY for binding to NPY5-transfected HEK293 cell membranes; conditions: 80 pM 125I-PYY, 1 hr room temperature, read-out: % Inh @ 3 uM (% Inhibition of ^125 I-PYY Binding)
T1 construct: expressed in transfected cells
T1 sequence (Q15761 1-445): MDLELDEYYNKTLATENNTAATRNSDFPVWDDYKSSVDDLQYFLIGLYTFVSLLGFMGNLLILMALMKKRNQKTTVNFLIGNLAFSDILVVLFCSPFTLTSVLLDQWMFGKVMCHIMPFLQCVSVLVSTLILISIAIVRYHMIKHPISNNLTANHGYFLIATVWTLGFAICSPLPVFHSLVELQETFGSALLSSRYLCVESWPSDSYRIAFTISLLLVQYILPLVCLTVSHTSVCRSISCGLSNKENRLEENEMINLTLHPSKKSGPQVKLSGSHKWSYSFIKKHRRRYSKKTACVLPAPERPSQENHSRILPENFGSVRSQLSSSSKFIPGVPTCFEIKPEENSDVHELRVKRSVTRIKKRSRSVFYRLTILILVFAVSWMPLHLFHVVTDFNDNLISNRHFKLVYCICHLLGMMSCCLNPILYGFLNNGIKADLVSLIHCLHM
Description: The compounds described in this invention were evaluated for binding to the human neuropeptide Y5 receptor.
The human NPY5 receptor cDNA (Genbank Accession number U66275) was inserted into the vector pClneo (Invitrogen) and transfected into human embryonic kidney cells (HEK-293) via Calcium phosphate method (Cullen 1987). Stably transfected cells were selected with G-418 (600 ug/mL). Stably transfected cells served as the source for the membranes for the NPY5 receptor binding assay.
NPY5-transfected HEK293 cells were grown to confluence in 150 cm^2 culture dishes. Cells were washed once with phosphate-buffered saline (Gibco Cat#14040-133). Cells were then incubated in phosphate-buffered saline without Calcium and without Magnesium, supplemented with 2 mM EDTA. Cells were incubated for 10 minutes at room temperature and the cells were collected by repetitive pipeting. Cells were formed into pellets and then frozen at -80 until needed. Frozen pellets were homogenized with a polytron at full speed for 12 seconds in a homogenization buffer (20 mM Tris HCl, 5 mM EDTA, pH 7.4). Homogenates were centrifuged for 5 minutes at 4C at 200 g. Supernatants were transferred to corex tubes and centrifuged for 25 minutes at 28,000 g. Pellets were re-suspended in Binding (20 mM HEPES, 10 mM NaCl, 0.22 mM KH2 PO4, 1.3 mM CaCl2, 0.8 mM MgSO4, pH 7.4). Membranes were kept on ice until use.
A competition binding assay, known to those skilled in the art, was used in which aminotetralins (I) compete with ^125 I-PYY for binding to cell membranes. In simple terms, the less ^125 I-PYY bound to the membranes implies that a compound is a good inhibitor (competitor). Bound ^125 I-PYY is determined by centrifugation of membranes, aspirating supernatant, washing away residual ^125 I-PYY and subsequently counting the bound sample in a g-counter.
Compounds to be tested were prepared as 10× stocks in binding buffer and added first to assay tubes (RIA vials, Sarstedt). Twenty (20) μL of each 10× compound stock is pipeted into vials and 80 μL of ^125 I-PYY (NEN catalog number NEX240), which has been diluted to a concentration of 200 pM in 0.25% BSA in binding buffer, is added to the compound tubes (final concentration of ^125 I-PYY is 80 pM). To each tube is added 100 μL of membranes and the mixture is agitated by pipeting 2 times. Samples are incubated for 1 hr at room temperature. Aluminum cast plates (Sarstedt) containing the vials are then centrifuged 10 minutes at 3200 rpm in a Sorvall RT6000. Supernatant is then aspirated. To each vial 400 μL PBS is added and this is then aspirated again. Vials are then put in carrier polypropylene 12×75 tube and counted in gamma counter (Packard). Non-specific binding is determined in the presence of 300 nM NPY. Percent inhibition of ^125 I-PYY binding is calculated by subtracting non-specific binding from the test samples (compound (I)), taking these counts and dividing by total binding, and multiplying by 100. Inhibitory concentration values (IC50) of compounds that show appreciable inhibition of ^125 I-PYY binding are calculated by obtaining percent inhibition of ^125 I-PYY binding values at different concentrations of the test compound, and using a graphing program such as GraphPad Prism (San Diego, Calif.) to calculate the concentration of test compound that inhibits fifty-percent of ^125 I-PYY binding (Table 4). These operations are known to those skilled in the art.

[3] = cited from earlier work
classic Y1 receptor = conditions: cited from earlier work
[4] = icv or into the amygdala; cited from earlier work
[5] = animal models of learning; cited from earlier work
[6] = tested on: forskolin-stimulated cAMP production/levels in a neuroblastoma cell line; conditions: cited from earlier work

COc1ccc2c(c1)CCC(NC[C@H]1CC[C@H](CNS(=O)(=O)c3ccccc3F)CC1)C2Cc1cccnc1 (relative stereo) [Compound 43]
Food Consumption (grams) 0-2 hrs [1]: 6.63 g | Food Consumption (% chg.) 0-2 hrs [1]: -17.1% | Food Consumption (grams) 0-6 hrs [1]: 15.25 g | Food Consumption (% chg.) 0-6 hrs [1]: -17.6% | Food Consumption (grams) 2-6 hrs [1]: 8.63 g | Food Consumption (% chg.) 2-6 hrs [1]: -17.8%

O=S(=O)(NC[C@H]1CC[C@H](CN[C@H]2CCc3cc(O)ccc3[C@H]2Cc2cccnc2)CC1)c1ccccc1F (relative stereo) [Compound 44, rac-[1α,2α(trans)]-N-[[[[[1,2,3,4-tetrahydro-6-hydroxy-1-(3-pyridinylmethyl)-2-naphthalenyl]amino]methyl]-4-cyclohexyl]methyl]2-fluorobenzenesulfonamide]
Food Consumption (grams) 0-2 hrs [1]: 4.75 g | Food Consumption (% chg.) 0-2 hrs [1]: -40.6% | Food Consumption (grams) 0-6 hrs [1]: 14.00 g | Food Consumption (% chg.) 0-6 hrs [1]: -24.3% | Food Consumption (grams) 2-6 hrs [1]: 9.25 g | Food Consumption (% chg.) 2-6 hrs [1]: -11.9% | inhibition at 3 µM [2]: 101%

COc1ccc2c(c1)CC[C@H](NC[C@H]1CC[C@H](CNS(=O)(=O)c3ccc(OC)c(OC)c3)CC1)[C@@H]2Cc1ccccc1 (relative stereo) [Compound 53]
Food Consumption (grams) 0-2 hrs [1]: 5.75 g | Food Consumption (% chg.) 0-2 hrs [1]: -33.3% | Food Consumption (grams) 0-6 hrs [1]: 11.88 g | Food Consumption (% chg.) 0-6 hrs [1]: -40.2% | Food Consumption (grams) 2-6 hrs [1]: 6.13 g | Food Consumption (% chg.) 2-6 hrs [1]: -45.6%

O=S(=O)(NC[C@H]1CC[C@H](CNC2CCc3cc(F)ccc3C2Cc2cccnc2)CC1)c1ccccc1F (relative stereo) [Compound 111]
Food Consumption (grams) 0-2 hrs [1]: 5.13 g | Food Consumption (% chg.) 0-2 hrs [1]: -35.9% | Food Consumption (grams) 0-6 hrs [1]: 12.63 g | Food Consumption (% chg.) 0-6 hrs [1]: -31.7% | Food Consumption (grams) 2-6 hrs [1]: 7.50 g | Food Consumption (% chg.) 2-6 hrs [1]: -28.6%

NPY2-36: NPY fragment
feeding ([3]; NPY fragment): potent inducer of feeding | binding at the classic Y1 receptor (classic Y1 receptor): poor binding

Neuropeptide Y: single peptide protein that consists of thirty-six amino acids containing an amidated C-terminus
anxiolytic effects [4]: produces anxiolytic effects | food intake ([3]; as little as one-billionth of a gram injected directly into the CNS, satiated rats): causes satiated rats to overeat | memory and performance scores [5]: improves memory and performance scores | forskolin-stimulated cAMP production/levels [6]: inhibits forskolin-stimulated cAMP production/levels
